What all share (assay): NCI tumour cell line growth inhibition, 48 h
For test [1], the system named is XF 498 CNS.
For test [2], the system named is SNB-78 CNS.
Test [3] has as its system HOP-18 NSCLC.
Test [4] deals with DMS 114 small cell lung.
The test system of test [5] is RXF-631 renal.
Test [6] relates to KM20L2 colon.
For test [7], the system named is MDA-MB-231 breast.
In test [8] the test system is MDA-N.
Test [9] has as its system NCI/ADR-RES ovarian.
For test [10], the system named is P388 leukemia.
Test [11] deals with SN12K1 renal.
The subject of test [12] is P388/ADR leukemia.

Values joined by “and” are separate entries in the source; they are usually repeats but may differ in a detail not shown here. Equal entries are not always repeated.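 Tested at 5 concentrations; 48 h exposure; 96-well plates; endpoints linearly interpolated, else capped at highest concentration. The concentration for 50% growth inhibition is given as GI50. TGI: concentration producing complete growth inhibition.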

On to `COC(=O)c1ccc2n[se]nc2c1`, for which the TGI in test [1], in [2], in test [3], in test [4], in [5] and in test [6] was greater than 100 µM in each case.

Consider `O=C(N/C(=C\c1cc(Cl)ccc1Cl)c1nc2ccccc2[nH]1)c1ccccc1`, for which the TGI in [1] is 69 µM; in test [2], greater than 100 µM; in [4], greater than 100 µM; in test [5], greater than 100 µM; in [6], greater than 100 µM.

Consider `CC(=O)OC1CC[C@@]2(C)C(CC(OC3OC(CO)C(O)C(O)C3O)[C@]3(C)C2CCC24CC23CC[C@H]4C(C)CC(O)[C@@H](O)C(C)(C)O)C1(C)C` (stereo partly drawn), for which the TGI is greater than 5 µM in test [2]; 41 µM in [3]; 20.6 µM in [4]; greater than 50 µM in test [5]; greater than 50 µM in test [6].

`COC(=O)c1nc(N)[nH]c(=O)c1-c1ccc(Cl)cc1`: the TGI in test [1], in test [2], in test [4], in [5] and in [6] was greater than 100 µM throughout.

For the compound `Clc1cc(Cl)c2n[se]nc2c1`, the TGI in [2], in [3], in test [5] and in test [6] was greater than 100 µM in each case.

With `Cc1cc(C)cc(NC(=O)CCC(=O)C2CCC/C2=N\NC(=O)C(=O)NN)c1` (stereo not drawn), the TGI in test [1], in [3], in [4], in test [5] and in [6] was greater than 100 µM throughout.

Turning to `NC(N)=Nc1nc2cc(N)ccc2o1`, the TGI in test [2], in test [3], in [5] and in test [6] was greater than 100 µM each time.

Regarding `COC1=C(C(=O)OC(C)(C)C)C23CCCCC2(C(C(=O)OC(C)(C)C)=C(OC)C3C(=O)OC(C)(C)C)C1C(=O)OC(C)(C)C` (stereo not drawn), the TGI in [1] was greater than 100 µM; in test [2] it was greater than 100 µM; in test [3] it was greater than 100 µM; in [4], greater than 100 µM; in test [5], 35.3 µM; in [6], greater than 100 µM.

In the case of `O=C1/C=C(/c2ccc(O)cc2)[C@H](O)Cc2ccc(OC3OC(CO)C(O)C(O)C3O)cc2O1` (stereo partly drawn) (tested in a mixture with another compound), the TGI in [2], in [4], in test [5] and in [6] was greater than 100 µM each time.

For the compound `COc1ccc(NC(=O)CC(=O)n2nc(-c3ccccc3)c(N=Nc3ccc(C)cc3)c2-c2ccccc2)cc1`, the TGI in test [7] was greater than 59.6 µM; in test [1], 24.9 µM; in test [2], 61.2 µM; in [3] it was greater than 78.3 µM; in [4], greater than 80.1 µM; in test [8], greater than 100 µM. Moreover, the results for the TGI in test [5], in test [6] and in [9] were greater than 100 µM, greater than 100 µM and greater than 61 µM, respectively.

For the compound `O=c1c2ccccc2oc2nccnc12`, the TGI in test [1], in test [2], in [3], in [4], in test [5] and in test [6] was greater than 100 µM in each case.

As to `O=C(CC1Sc2ccccc2NC1=O)Nc1ccc([N+](=O)[O-])cc1[N+](=O)[O-]` (stereo not drawn), the TGI in test [2] turned out to be 51.7 µM; in test [3], 46 µM; in [4], 27.5 µM; in test [5] it was 41.4 µM; in [6] it was 79.5 µM.

For `CC(C)(C)NC(=O)C12C3C4C1C1C2C3C41I` (stereo not drawn), the TGI in test [1], in test [2], in test [4], in [5] and in [6] was greater than 100 µM in each case.

As for `CC(=O)OCC1OC(n2c(-c3ccc(N)cc3)cc(-c3ccco3)c(C#N)c2=O)C(OC(C)=O)C(OC(C)=O)C1OC(C)=O` (stereo not drawn), the TGI in [2], in test [3], in [4], in test [5] and in test [6] was greater than 50 µM in each case.

`N#CC1(Cc2ccccc2Cl)c2ccccc2C=CN1C(=O)c1ccccc1` (stereo not drawn): the TGI in [1], in [2], in [3], in test [4] and in [6] was greater than 100 µM in each case.

With `C[N+](C)(C)CC(=O)NC(=O)N/N=C\C(CC#N)CN(Cc1ccccc1)Cc1ccccc1` (stereo not drawn), the TGI in test [1], in test [2], in test [3], in test [4], in test [5] and in [6] was greater than 100 µM in each case.

Take `COc1cc(OC)c(Oc2cccc(OC)c2OC)c(OC)c1`: the TGI in [1] is greater than 100 µM; in test [2] it was greater than 100 µM; in test [3] it was 89.5 µM; in test [4], greater than 100 µM; in [6], greater than 100 µM.

For `COC1=C(NC(C)=O)C(=O)c2nc3n(c2C1=O)CCC3`, the TGI was 27.1 µM in test [7]; 33.6 µM in [1]; 28.9 µM in test [2]; 39.1 µM in test [3]; 25 µM in test [4]; 6.84 µM in test [8]. For the same compound, the TGI in [6] was greater than 100 µM; in [9], 41.1 µM.

Regarding `Cc1cc(C)c(-c2noc(-c3ccc(Cl)cc3)c2C2=NCCN2)c(C)c1`, the TGI is 38.4 µM in test [1]; 58.3 µM in test [2]; greater than 100 µM in test [3]; greater than 100 µM in test [5]; 54 µM in [6].

As for `O=C(Nc1ccc(Cl)cc1Cl)c1c/c(=N\O)c2ccc(O)cc2o1`, the TGI in test [2], in test [3], in test [4], in test [5] and in test [6] was greater than 100 µM each time.

For `O=C(O)C(=O)/C=C\c1ccc(Cl)cc1`, the TGI in test [1], in test [2], in test [3], in test [4] and in [6] was greater than 100 µM in each case.

Take `NNC(=S)N/N=C(\c1nc2ccc(Cl)cc2[nH]c1=O)C(O)c1ccc(Cl)cc1Cl` (stereo not drawn): the TGI in [1], in test [2], in test [3], in test [4], in [5] and in [6] was greater than 100 µM each time.

As for `COc1ccc2c(c1)C(CCN)C(=O)N2` (stereo not drawn), the TGI in test [1], in test [2], in test [3], in test [4], in [5] and in test [6] was greater than 100 µM each time.

On to `Nc1ncnc2c1ncn2C1OC(CO)C(O)C1O` (stereo not drawn), for which the GI50 was 5.91 µM in [7] and 5.06 µM in test [9]. Besides, the TGI in test [7] is > 100 µM and 24.6 µM; in test [1] it was greater than 450 µM; in test [2], greater than 450 µM; in [3], greater than 399 µM; in [4], greater than 437 µM; in test [10], 111 µM. Besides, the TGI is greater than 450 µM in test [11], greater than 100 µM in test [8], greater than 450 µM in test [6] and 144 µM in [12].

Consider `COc1ccc(-c2cc(-c3ccco3)c(C#N)c(=O)n2C2OC(OC(=O)c3ccccc3)C(OC(=O)c3ccccc3)C2OC(=O)c2ccccc2)cc1` (stereo not drawn), for which the TGI in test [2], in test [3], in test [4], in [5] and in test [6] was greater than 100 µM in each case.

With `CC1=NN(C(=O)CC(=O)Nc2ccccc2)C(=O)C1N=Nc1ccc(S(N)(=O)=O)cc1` (stereo not drawn), the TGI in test [1], in test [2], in [3], in [4], in test [5] and in [6] was greater than 100 µM each time.

In the case of `Nc1ccc(Cl)cc1.Nc1ccc(Cl)cc1.Nc1ccc(Cl)cc1.O=C([O-])C(=O)[O-].O=C([O-])C(=O)[O-].[H+].[Ru+5]`, the GI50 in test [1] is greater than 87.2 µM; in test [2], greater than 81.9 µM; in [3], greater than 100 µM; in test [4], 0.23 µM; in test [6] it was greater than 100 µM. Besides, the TGI in test [1], in test [2], in test [3], in test [5] and in [6] was greater than 100 µM throughout.

Source of the values: PubChem BioAssay (NCI).
